Source: US20050215531A1, “Use of edg receptor binding agents in cancer” (priority 2002, published 2005)

Key:
Assay type in all cases: cell-based, human
[1] = tested on: HUVEC; experiment: S1P-mediated HUVEC tube formation assay; settings: branching points in 3 independent fields at 4× magnification
Procedure: For the tube formation assay, HUVEC from passage 2-8 are used and are never greater than 70% confluent before harvesting. Cells are prepared for the assay by washing with Herpes Balanced Saline Solution (HBSS from Clonetics) and then trypsinizing with Trypsin/EDTA (0.25 mg/ml, from Clonetics). After approximately 90% of the cells have lifted off the plate, an equal volume of Trypsin Neutralizing Solution (TNS from Clonetics) is added and the cells are collected into a conical tube containing at least 10 ml of EBM-2 (Clonetics)+0.1% BSA (Sigma) media Cells are centrifuged at 1000 rpm for 5 minutes and the supematant is removed and replaced with 5 ml of fresh EBM-2+0.1% BSA. Cells are counted using a hemacytometer and the volume of the cell suspension is adjusted to achieve a concentration of 500,000 cells/ml. Conical tubes are prepared with test compounds at 100 nM, and pertussin toxin (PTx) at 10 ng/ml in each, then 1 ml of the cell suspension is added to each tube. Tubes are then incubated for ½ hour at 37° C., 5% CO2. The migration assay is performed using Fluoro-Blok 24-Multiwell insert Plates coated with fibronectin (8 μm pore size, Falcon #351147) instead of the individual inserts in a 24-well plate. Cells and test compounds are prepared and pre-incubated as described above, then 100 μl is added to each approriate well in the Insert Plate. 300 μl of the EBM-2+2% charcoastripped media without S1P is added to the bottoms of the wells marked for no stimulation (−), and 300 μl of the media containing S1P (500 nM) is added to the bottoms of the wells marked for stimulation (+). The plate is then incubated for 4 hours at 37° C., 5% CO2. […]
After incubation, the plate is read on a Cytofluor II at an excitation of 485 nm and emission of 530 nm. The Fluoro-Blok coating in the inserts allows only the cells that have migrated to the bottom to be counted. […]
Tube formation is quantitated by counting the number of branching points (two independent cords connecting) in 3 independent fields at 4× magnification.

[2] = tested on: tissue factor; experiment: Clotting assay, tissue factor activity on HUVEC
Procedure: Human umbilical vein endothelial cells (HUVEC) are cultured at 37° C. and 5% CO2 in medium M199 supplemented with 20% SCS (HyClone, Logan, Utah), 1 U/ml heparin, 50 μg/ml ECGS, 2 mM glutamine, 100 U/ml penicillin and 0.1 mg/ml streptomycin. Cells are used for experiments up to passage number 5. Short-starved HUVEC are obtained by starving with 1% SCS-containing M199 for 5 h. Recombinant human VEGF165 is obtained from PromoCell (Heidelberg, Germany). Phospho-specific ERK½, p3B kinase polyclonal antibodies, nonphospho ERK½ antibodies and LumiGLO chemiluminescent reagent are from New England BioLabs (Beverly, Mass.), polyclonal IKB antibodies from Santa Cruz Biotechnology (Santa Cruz, Calif.). Peroxidase-conjugated donkey anti-rabbit immunoglobulin G (IgG) and sheep anti-mouse IgG are purchased from Amersham LIFE SCIENCE (Amersham Place, England). lmmobilon-P transfer membranes are products of Millipore (Bedford, Mass.). S is obtained from Sigma Chemical Co.; S1P is from Biomol. Compound A-phosphate stock solution is prepared by the following protocol. Compound A-phosphate is dissolved in methanol tracing with concentrated HCl (0.5 mg Compound A-phosphate in 500 μl of methanol plus 2 μl of HCl). Solvent from the resulting solution is evaporated under vacuum and the residue obtained is redissolved (variant 1) in 0.1% of defatted BSA solution in sterile deionized water (500 μl) or (variant 2) in 0.5% Triton X-100 in deionized water. The resulting stock solutions (2.5 mM) are sonicated and stored at 4° C.
Cells are seeded in 6-well plates at 80-90% confluency and grown overnight. Cells are scraped from the plates and analyzed for tissue factor activity according to the method as described in Clauss, M., J. Biol. Chem. 271,17629-17634 (1996), Mechtcheriakova, D., Blood 93,3811-3823 (1999). Briefly, after induction for 4 hours with VEGF (1.5 nM), TNF-α (100 U/ml), S (0.5-2 μM), S1P (0.5-2 μM), Compound A (0.5-2 μM), and Compound A-phosphate (0.5-2 μM), cells are washed twice and then scraped in 1 ml clotting buffer (12 mM sodium acetate, 7 mM diethylbarbitate and 130 mM sodium chloride; pH 7.4). 50 μl of resuspended cells are mixed with 50 μl of citrated plasma, and clotting times are determined after recalcfication with 50 μl of 20 mM CaCl2 solution at 37° C. TF-equivalents are determined by using a standard curve obtained from rabbit brain thromboplastin.
An important characteristic feature of both classical inflammatory stimulus TNF-α and the main angiogenic growth factor VEGF on endothellal cells is their potency to upregulate tissue factor. Compound A, Compound A-phosphate, S or S1P are tested whether they also do induce tissue factor on HUVEC. […] The data obtained together indicate that Compound A, Compound A-phosphate, S and S1P mechanistically work distinctly to anglogenic VEGF and inflammatory TNF-α.

[3] = tested on: E-Selectin; experiment: E-Selectin expression in endothelial cells

SMILES: CCCCCCCCc1ccc(CCC(N)(CO)COP(=O)(O)O)cc1 (stereo not drawn) [Compound A-phosphate]
- Branching Points ([1]; treatment + S1P): 14 ± 7
- Branching Points ([1]; treatment alone): 48 ± 15
- effect on TNF-α-induced tissue factor ([2]; TNF-α 100 U/ml): not TNF-α-induced
- effect on VEGF-induced tissue factor ([2]; VEGF 1.5 nM): slightly enhance
- tissue factor activity ([2]; compound alone or in combinations, 0.5-2 μM, 4 hours): none of these compounds alone or in combinations may elevate tissue factor activity
- E-Selectin expression [3]: fail to induce
